{"source": "patent US9289445B2", "about": "“Compositions and methods for treating or preventing a retrovirus infection” (University of Rochester, priority 2011, dated 2016)", "key": {"[1]": {"tested_on": "human primary CD4+ T cells", "test": "Cytotoxicity of rACT, FACS/trypan blue", "format": "cell-based", "conditions": "concentrations up to 1 mM, 2 days", "procedure": "(§1) FIGS. 6A-6E show inhibition of HIV-1 reverse transcription by 3′ deoxyadenosine chain terminator (rACT) in human primary macrophages and its cytotoxicity. FIG. 6A includes a graph showing the cytotoxicity of rACT in human primary CD4^+ T cells, U937 cells, and CHME5 cells. These three types of cells were cultured and treated with different concentrations of rACT (up to 1 mM) for 2 days, and the percentage of live and dead cells were determined by FACS and/or trypan blue staining. The percentage of the live cells in the absence of rACT was used for normalization (100%), and the base line cell death of these cell types in the absence of rACT were less than 5%. FIG. 6B includes FACS results. […] The percentages of GFP positive macrophages and PI positive cells in a representative donor, which were determined by FACS at 7 days post transduction, are shown. […] Genomic DNAs were extracted from the transduced macrophages in FIG. 6B, and were used in a quantitative 2LTR circle PCR assay. Viral production was determined by p24 ELISA with the collected media. […]\n(§2) First, the cytotoxicity of rACT in human primary CD4^+ T cells, human primary macrophages, human microglial CHME5, and human premonocytic U937 cell lines was assessed. Cells were incubated with different concentrations of rACT (up to 1 mM) for 2 days, and cell survival was determined. […]"}, "[2]": {"tested_on": "HIV-1 vector (DHIV-GFP) in activated CD4+ T cells", "test": "HIV-GFP vector transduction of activated CD4+ T cells (GFP FACS)", "format": "cell-based", "conditions": "rACT 0.1 and 1 mM, activated CD4+ T cells compared to macrophages", "protocol": "Next, rACT was evaluated for its ability to inhibit HIV-1 replication in non-dividing cells. The transduction efficiency of an HIV-1 vector in primary human macrophages in the presence and absence of rACT was measured. Human macrophages, which were prepared from multiple donors, were pre-incubated with various concentrations of rACT, and then transduced with an HIV vector (D3-GFP), which expressed all HIV-1 proteins except Env and Nef (replaced with eGFP). Virus infectivity was determined by FACS analysis for GFP expression at 7 days post infection. […] Finally, the effect of rACT on HIV-1 infection in activated CD4^+ T cells was examined.\n(§3) Dideoxy uracil triphosphate (ddUTP) was assessed for its ability to inhibit viral reverse transcription in non-dividing cells. Primary human macrophages and CD4^+ T-cells were isolated from human buffy coats and pretreated with ddUTP. The treated cells were then transduced with a single round of VSV-G pseudotyped HIV-1 vector D3-HIV in the presence of various concentrations of drug.\nrACT was tested in T cells as follows, human primary activated CD4^+ T cells (2.5×10^5) cells isolated from two donors were pre-treated with 0, 0.1, and 1 mM rACT for 4 hours, and then the cells were transduced with DHIV-GFP. The transduced cells were fixed at 48 hours post transduction, and analyzed by FACS for determining the percent of GFP cells. […]"}, "[3]": {"tested_on": "human primary macrophages", "test": "Toxicity of rNCTs in macrophages, propidium iodide-based FACS", "format": "cell-based", "conditions": "0.5, 1 and 2 mM, 7 days", "procedure": "Human primary macrophages were incubated in the presence or absence of rACT, rCCT, rGCT, or rUCT (0.5, 1 and 2 mM) for 7 days, and the percent of live cells (cell survival rate) were determined by propidium iodide-based FACS. FIG. 12 includes a graph of cell survival rate with each rNCTP.\nThe continuous HIV-1 culture system in human primary macrophages was also employed to evaluate the toxicity of rNCTs in nondividing cells. Human primary macrophages were incubated in the presence or absence of each rNCT (0.5, 1 and 2 mM) for 7 days, and the percentage of live cells (cell survival rate) were determined by propidium iodide-based FACS."}, "[4]": {"tested_on": "HIV-1 vector (D3-GFP) in primary human macrophages", "test": "HIV-GFP vector transduction of primary macrophages (GFP FACS)", "format": "cell-based", "conditions": "rACT 0.1 and 1 mM, 7 days post infection, versus no treatment", "protocol": "Human primary macrophages were preincubated with different concentrations of rACT (0, 10, 100 and 100 μM) for 24 hours and then transduced with HIV-GFP vector (equal p24 amounts). The percentages of GFP positive macrophages and PI positive cells in a representative donor, which were determined by FACS at 7 days post transduction, are shown. […] These experiments were performed in triplicate from three different blood donors.\nPrimary human macrophages were pretreated with ddUTP and transduced with a single round VSV-G pseudotyped HIV-1 vector (D3HIV). […] FIG. 10B is a graph showing the results from flow cytometry analysis of the transduced cells.\nNext, rACT was evaluated for its ability to inhibit HIV-1 replication in non-dividing cells. The transduction efficiency of an HIV-1 vector in primary human macrophages in the presence and absence of rACT was measured. Human macrophages, which were prepared from multiple donors, were pre-incubated with various concentrations of rACT, and then transduced with an HIV vector (D3-GFP), which expressed all HIV-1 proteins except Env and Nef (replaced with eGFP). Virus infectivity was determined by FACS analysis for GFP expression at 7 days post infection.\nDideoxy uracil triphosphate (ddUTP) was assessed for its ability to inhibit viral reverse transcription in non-dividing cells. […]"}, "[5]": {"tested_on": "HIV-1 2-LTR DNA circles (proviral DNA synthesis) in macrophages", "test": "Quantitative 2LTR circle PCR in transduced macrophages", "format": "cell-based", "conditions": "rACT 0.1 and 1 mM, macrophages", "protocol": "Human macrophages, which were prepared from multiple donors, were pre-incubated with various concentrations of rACT, and then transduced with an HIV vector (D3-GFP), which expressed all HIV-1 proteins except Env and Nef (replaced with eGFP).\nas §3\nEqual p24 level of the produced vector was used for infecting human macrophages pre-incubated with different concentrations of rACT (RI Chemicals, CA) for 12 hours. For ddUTP, the produced vector was pre-incubated for at least two hours. One half of the harvested cells were used for determining the percentages of the GFP expressing and/or propidium iodide (PI) stained cells by FACS at 7 days post infection. All cells used to asses transduction efficiency were gated or stained with propidium iodide to assure live cells were measured. The remaining cells were used for the extraction of genomic DNA. Quantitative 2LTR circle PCR assay using real-time PCR was normalized by total genomic DNA (Biorad, Hercules, Calif.)."}, "CHME5 cells": {"tested_on": "CHME5 cells", "test": "Cytotoxicity of rACT, FACS/trypan blue", "format": "cell-based, human", "conditions": "concentrations up to 1 mM, 2 days", "procedure": "as §1, §2"}, "U937 cells": {"tested_on": "U937 cells", "test": "Cytotoxicity of rACT, FACS/trypan blue", "format": "cell-based, human", "conditions": "concentrations up to 1 mM, 2 days", "procedure": "as §1, §2"}}}
{"smiles": "Nc1ncnc2c1ncn2[C@@H]1O[C@H](CO)C[C@H]1O", "note": "[rACT, 3′-deoxyadenosine]", "values": [{"measurement": "cytotoxicity", "setting": "[1]", "value": "no significant cytotoxicity"}, {"measurement": "inhibitory effect on HIV-1 infection (GFP positive cells)", "setting": "[2]", "value": "less of an inhibitory effect"}, {"measurement": "cytotoxicity (cell survival rate)", "setting": "[3]", "value": "no significant cytotoxicity"}, {"measurement": "percent of macrophages expressing GFP", "setting": "[4]", "value": "reduced the percent of macrophages expressing GFP"}, {"measurement": "2-LTR circle copy number", "setting": "[5]", "value": "substantially reduced the 2-LTR circle copy number"}, {"measurement": "cytotoxicity", "setting": "CHME5 cells", "value": "no significant cytotoxicity"}, {"measurement": "cytotoxicity", "setting": "U937 cells", "value": "no significant cytotoxicity"}]}
